Data published in patent publication US11491144B2, “Methods of treating fragile X mental retardation syndrome” (The Florida State University Research Foundation, …, priority 2018, dated 2022).

Tests used:
male FX mice = test: Spontaneous locomotor activity assay (photobeam breaks, dark phase); type: in vivo, mouse; conditions: male FX mice (B6.129P2-Fmr1tm1Cgr/J); nor-BNI 20 mg/kg or MPH 0.75 mg/kg intraperitoneal; measured between 7 pm and 7 am
Description: (§1) The B6.129P2-Fmr1^tm1Cgr/J strain of mouse was used in the studies as it is a widely used mouse model of FX (Kazdoba et al. Intractable Rare Dis. Res. 2014, 3, 118), and C57BL/6J mice were used as the control strain of mice. Mice were housed 2-4 per cage and maintained on a “reversed” light cycle (lights-off at 7 am and lights-on at 7 pm). They were habituated to the investigator by extensive handing for at least one week prior to the beginning of behavioral analyses. Additionally, they were habituated to the behavioral test room for at least 30 min prior to the behavioral testing, and testing was conducted under dim red light.
(§2) The mice underwent a battery of tests starting on postnatal day 60 (P60). Behavioral analyses included measurements of spontaneous locomotor activity, working memory, attention, and social interactions. Approximately 12 male and/or female mice were used for each behavioral test.
Spontaneous locomotor activity was assayed by using a testing chamber with photobeam motion sensors (Photobeam Activity Systems, San Diego Instruments, San Diego, Calif.). […] Photobeam breaks were recorded, scored as an ambulatory event, and grouped into hourly activity measurements for statistical analysis. Cumulative activity over the 12 hour “dark phase” was calculated. […]

FX mice = test: Cliff avoidance reflex (CAR) test for motor impulsivity; type: in vivo, mouse; conditions: 20 mg/kg intraperitoneal, 30 min test, 5 min intervals
Description: as §1, §2
Motor-impulsivity was assayed using a cliff avoidance reflex (CAR) test. The apparatus consists of a round Plexiglas platform (20 cm in diameter) supported by an iron rod (50 cm in height). The mouse is placed on the platform and observed over a period of 30 min. If the mouse falls off the platform during the 30 min period, it is picked up and returned to the platform to complete the test. The number of falls is recorded, and the data are analyzed at 5 min intervals.

Row | Structure (SMILES) | Spontaneous locomotor activity compared to saline (male FX mice) | Time course of cliff avoidance reflex (FX mice; female FX mice) | Time course of cliff avoidance reflex (FX mice; male FX mice)
1 | COC(=O)C(c1ccccc1)C1CCCCN1 (stereo not shown) [Methylphenidate, methylphenidate] | did not produce significant effects | – | –
2 | Oc1ccc2c3c1O[C@H]1c4[nH]c5c(c4C[C@@]4(O)[C@@H](C2)N(CC2CC2)CC[C@]314)C[C@@]1(O)[C@H]2Cc3ccc(O)c4c3[C@@]1(CCN2CC1CC1)[C@H]5O4 [nor-BNI, norbinaltorphimine] | significant reduction in activity | improved the time course of cliff avoidance reflex | did not produce significant effects
